Laboratory results as given in patent US8802597B2, “Herbicidal pyrimidines” (E I du Pont de Nemours and Company, priority 2003, dated 2014).

Key:
Assay type in all cases: in vivo
[1] = test system: crabgrass (Digitaria sanguinalis); assay: Test A pre/postemergence
Procedure, shortened: (§1)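 Visual injury scored 0–100 (0 = no effect, 100 = complete control) against untreated controls after about ten days in the greenhouse. Compounds, formulated in non-phytotoxic solvent plus surfactant, were applied preemergence as a directed soil spray and postemergence at the 1- to 2-leaf stage (2–10 cm).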

[2] = test system: redroot pigweed (Amaranthus retroflexus); assay: Test A pre/postemergence
Procedure, shortened: as §1

[3] = test system: morningglory (Ipomoea spp.); assay: Test A pre/postemergence
Procedure, shortened: as §1

[4] = test system: giant foxtail (Setaria faberi); assay: Test A pre/postemergence
Procedure, shortened: as §1

[5] = test system: barnyardgrass (Echinochloa crus-galli); assay: Test A pre/postemergence
Procedure, shortened: as §1

[6] = test system: velvetleaf (Abutilon theophrasti); assay: Test A pre/postemergence
Procedure, shortened: as §1

[7] = test system: water seeded rice seedlings (Oryza sativa cv. ‘Japonica-M202’); assay: Test E flooded paddy water application; conditions: Flood, 21 days, scale 0 to 100 (0 no effect, 100 complete control)
Procedure, shortened: (§2)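 Weeds sown in sterilized Tama silt loam (2.6% organic matter), greenhouse 29.5/26.7° C, 16-h photoperiod; at 2.0–2.5-leaf stage pots flooded to 3 cm and compound added to paddy water. Visual rating vs untreated controls after 21 days, 0 (no effect) to 100 (complete control).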

[8] = test system: smallflower umbrella sedge (Cyperus difformis); assay: Test E flooded paddy water application; conditions: Flood, 21 days, scale 0 to 100 (0 no effect, 100 complete control)
Procedure, shortened: as §2

[9] = test system: bearded (brdd.) sprangletop (Leptochloa fusca ssp. fascicularis); assay: Test E flooded paddy water application; conditions: Flood, 21 days, scale 0 to 100 (0 no effect, 100 complete control)
Procedure, shortened: as §2

[10] = test system: early watergrass (Echinochloa oryzoides); assay: Test E flooded paddy water application; conditions: Flood, 21 days, scale 0 to 100 (0 no effect, 100 complete control)
Procedure, shortened: as §2

[11] = test system: transplanted rice seedlings (Oryza sativa cv. ‘Japonica-M202’); assay: Test E flooded paddy water application; conditions: Flood, 21 days, scale 0 to 100 (0 no effect, 100 complete control)
Procedure, shortened: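 Response scored visually on a 0–100 scale (100 = complete control) at 21 days against untreated pots. Treatment was into paddy water 3 cm deep over silt loam, with plants at the 2.0–2.5-leaf stage, grown under 16-h light at 29.5/26.7 °C day/night.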

[12] = test system: rice flatsedge (Cyperus iria); assay: Test E flooded paddy water application; conditions: Flood, 21 days, scale 0 to 100 (0 no effect, 100 complete control)
Procedure, shortened: as §2

[13] = test system: junglerice (Echinochloa colona); assay: Test E flooded paddy water application; conditions: Flood, 21 days, scale 0 to 100 (0 no effect, 100 complete control)
Procedure, shortened: as §2

[14] = test system: ducksalad (Heteranthera limosa); assay: Test E flooded paddy water application; conditions: Flood, 21 days, scale 0 to 100 (0 no effect, 100 complete control)
Procedure, shortened: as §2

[15] = test system: late watergrass (Echinochloa oryzicola); assay: Test E flooded paddy water application; conditions: Flood, 21 days, scale 0 to 100 (0 no effect, 100 complete control)
Procedure, shortened: as §2

[16] = test system: purple redstem (Ammannia coccinea); assay: Test E flooded paddy water application; conditions: Flood, 21 days, scale 0 to 100 (0 no effect, 100 complete control)
Procedure, shortened: as §2

[17] = test system: barnyardgrass (Echinochloa crus-galli); assay: Test E flooded paddy water application; conditions: Flood, 21 days, scale 0 to 100 (0 no effect, 100 complete control)
Procedure, shortened: as §2

[18] = Postemergence, 125 g ai/ha, 0 to 100 scale (0 no effect, 100 complete control)
[19] = Postemergence, 500 g ai/ha, 0 to 100 scale (0 no effect, 100 complete control)
[20] = Preemergence, 125 g ai/ha, 0 to 100 scale where 0 is no effect and 100 is complete control, approximately ten days
[21] = Preemergence, 500 g ai/ha, 0 to 100 scale where 0 is no effect and 100 is complete control, approximately ten days

CCOC(=O)c1nc(-c2ccc(Cl)cc2Cl)nc(N)c1Cl [Compound 72]
Plant response rating, Crabgrass [1, 18]: 10 | Plant response rating, Crabgrass [1, 19]: 30 | Plant response rating, Crabgrass [1, 20]: 0 | Plant response rating, Crabgrass [1, 21]: 0 | Plant response rating, Pigweed [2, 18]: 95 | Plant response rating, Pigweed [2, 19]: 95 | Plant response rating, Pigweed [2, 20]: 75 | Plant response rating, Pigweed [2, 21]: 100 | Plant response rating, Morningglory [3, 18]: 55 | Plant response rating, Morningglory [3, 19]: 70 | Plant response rating, Morningglory [3, 20]: 0 | Plant response rating, Morningglory [3, 21]: 0 | Plant response rating, Foxtail, Giant [4, 18]: 0 | Plant response rating, Foxtail, Giant [4, 19]: 0 | Plant response rating, Foxtail, Giant [4, 20]: 0 | Plant response rating, Foxtail, Giant [4, 21]: 0 | Plant response rating, Barnyardgrass [5, 18]: 0 | Plant response rating, Barnyardgrass [5, 19]: 0 | Plant response rating, Barnyardgrass [5, 20]: 0 | Plant response rating, Barnyardgrass [5, 21]: 0 | Plant response rating, Velvetleaf [6, 18]: 85 | Plant response rating, Velvetleaf [6, 19]: 85 | Plant response rating, Velvetleaf [6, 20]: 40 | Plant response rating, Velvetleaf [6, 21]: 55 | Rice, Water Seeded plant response rating ([7]; 32 g ai/ha): 0 | Rice, Water Seeded plant response rating ([7]; 64 g ai/ha): 0 | Rice, Water Seeded plant response rating ([7]; 125 g ai/ha): 0 | Rice, Water Seeded plant response rating ([7]; 250 g ai/ha): 0 | Plant response rating, Rice, Water Seeded ([7]; 16 g ai/ha): 0 | Sedge, Umbrella plant response rating ([8]; 32 g ai/ha): 30 | Sedge, Umbrella plant response rating ([8]; 64 g ai/ha): 75 | Sedge, Umbrella plant response rating ([8]; 125 g ai/ha): 90 | Sedge, Umbrella plant response rating ([8]; 250 g ai/ha): 100 | Plant response rating, Sedge, Umbrella ([8]; 16 g ai/ha): 0 | Sprangletop, Brdd. plant response rating ([9]; 32 g ai/ha): 0 | Sprangletop, Brdd. plant response rating ([9]; 64 g ai/ha): 0 | Sprangletop, Brdd. plant response rating ([9]; 125 g ai/ha): 0 | Sprangletop, Brdd. plant response rating ([9]; 250 g ai/ha): 0 | Plant response rating, Sprangletop, Brdd. ([9]; 16 g ai/ha): 0 | Watergrass, Early plant response rating ([10]; 32 g ai/ha): 0 | Watergrass, Early plant response rating ([10]; 64 g ai/ha): 0 | Watergrass, Early plant response rating ([10]; 125 g ai/ha): 0 | Watergrass, Early plant response rating ([10]; 250 g ai/ha): 0 | Plant response rating, Watergrass, Early ([10]; 16 g ai/ha): 0 | Rice, Transplanted plant response rating ([11]; 32 g ai/ha): 0 | Rice, Transplanted plant response rating ([11]; 64 g ai/ha): 0 | Rice, Transplanted plant response rating ([11]; 125 g ai/ha): 0 | Rice, Transplanted plant response rating ([11]; 250 g ai/ha): 0 | Plant response rating, Rice, Transplanted ([11]; 16 g ai/ha): 0 | Flatsedge, Rice plant response rating ([12]; 32 g ai/ha): 100 | Flatsedge, Rice plant response rating ([12]; 64 g ai/ha): 100 | Flatsedge, Rice plant response rating ([12]; 125 g ai/ha): 100 | Flatsedge, Rice plant response rating ([12]; 250 g ai/ha): 100 | Plant response rating, Flatsedge, Rice ([12]; 16 g ai/ha): 90 | Junglerice plant response rating ([13]; 32 g ai/ha): 0 | Junglerice plant response rating ([13]; 64 g ai/ha): 0 | Junglerice plant response rating ([13]; 125 g ai/ha): 0 | Junglerice plant response rating ([13]; 250 g ai/ha): 0 | Plant response rating, Junglerice ([13]; 16 g ai/ha): 0 | Ducksalad plant response rating ([14]; 32 g ai/ha): 80 | Ducksalad plant response rating ([14]; 64 g ai/ha): 100 | Ducksalad plant response rating ([14]; 125 g ai/ha): 100 | Ducksalad plant response rating ([14]; 250 g ai/ha): 100 | Plant response rating, Ducksalad ([14]; 16 g ai/ha): 80 | Watergrass, Late plant response rating ([15]; 32 g ai/ha): 0 | Watergrass, Late plant response rating ([15]; 64 g ai/ha): 0 | Watergrass, Late plant response rating ([15]; 125 g ai/ha): 0 | Watergrass, Late plant response rating ([15]; 250 g ai/ha): 0 | Plant response rating, Watergrass, Late ([15]; 16 g ai/ha): 0 | Redstem plant response rating ([16]; 32 g ai/ha): 25 | Redstem plant response rating ([16]; 64 g ai/ha): 25 | Redstem plant response rating ([16]; 125 g ai/ha): 35 | Redstem plant response rating ([16]; 250 g ai/ha): 100 | Plant response rating, Redstem ([16]; 16 g ai/ha): 0 | Barnyardgrass plant response rating ([17]; 32 g ai/ha): 0 | Barnyardgrass plant response rating ([17]; 125 g ai/ha): 0 | Barnyardgrass plant response rating ([17]; 250 g ai/ha): 0
